# In ChEMBL document CHEMBL1150211, “Structure of Irniine, a Pyrrolidine Alkaloid from Arisarum vulgare” (J Nat Prod, 1992):
# Assay: Toxicity in brine shrimp
# Assay type: organism-based
# Conditions: artemia, in vivo
compound,measurement,value
CN1CCC[C@H]1CCCCCCCCCc1ccccc1,LC50,1 µg/mL
